The text below walks through data of ChEMBL document CHEMBL1177789, “Inhibitors for expression of IgE receptor on human mast cell from Puerariae Flos” (Bioorg Med Chem Lett, 2010).

Each structure is given as a SMILES string. The source made the active and inactive calls. No cut-off for these calls is given here.

Data set [1] has as its system HMC1. As to the kind of experiment: Antiallergic activity in human HMC1 cells assessed as inhibition of IgE […] receptor mRNA expression after 72 hrs by RT-PCR. Type of data set: functional, cell-based.
Data set [2] can be described thus: Cytotoxicity against human HMC1 cells at 50 uM after 72 hrs. Type of data set: cell-based. As to conditions: hmc1, 72 h.
Data set [3] concerns HMC1. Briefly: Antiallergic activity in human HMC1 cells assessed as inhibition of IgE […] receptor expression after 72 hrs by flow cytometry. The data set is classed as functional, cell-based. In general terms: Flow cytometry measures light scatter and fluorescence of single cells or particles in a stream.

With `COc1c(O)cc2occ(-c3ccc(O)cc3)c(=O)c2c1O`, the inhibition result in the data set on HMC1 [1] was “Active”.

Consider `COc1cc2occ(-c3ccc(O)cc3)c(=O)c2cc1OC`, for which the Activity result in data set [2] is on record as “Non-toxic”. Further, the inhibition result with HMC1 [3] is “Active”.
